Source: ChEMBL document CHEMBL1201862, “PubChem BioAssay data set” (2004)
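Tested at 5 concentrations; 48 h exposure; 96-well plates; endpoints linearly interpolated, else capped at highest concentration. At the GI50, growth is halved.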 Calls of active or inactive are those of the source. Cut-off read from the data, not from the text of the source: active = GI50 up to about 1.1 µM and inactive = higher.

How the values were obtained:
Experiment in all cases: NCI anticancer screen, dose series, 48 h
[1] = tested on: 786-0
[2] = tested on: A549
[3] = tested on: ACHN
[4] = tested on: BT-549
[5] = tested on: HL-60
[6] = tested on: HOP-62
[7] = tested on: Hs-578T
[8] = tested on: KM12
[9] = tested on: MDA-N
[10] = tested on: MOLT-4
[11] = tested on: NCI-H226
[12] = tested on: NCI-H23
[13] = tested on: NCI-H460
[14] = tested on: NCI-H522
[15] = tested on: NCI/ADR-RES
[16] = tested on: PC-3
[17] = tested on: RPMI-8226
[18] = tested on: SF-539
[19] = tested on: UO-31
[20] = tested on: OVCAR-4

Compound | GI50 [1] | GI50 [2] | GI50 [3] | GI50 [4] | GI50 [5] | GI50 [6] | GI50 [7] | GI50 [8] | GI50 [9] | GI50 [10] | GI50 [11] | GI50 [12] | GI50 [13] | GI50 [14] | GI50 [15] | GI50 [16] | GI50 [17] | GI50 [18] | GI50 [19] | GI50 [20]
O=C(O)c1c(CC(Cc2ccc3c(c2)CCCC3)C(=O)O)ccc2c1CCCC2 (stereo not given) | > 100 µM (inactive) | > 100 µM (inactive) | > 100 µM (inactive) | > 100 µM (inactive) | > 100 µM (inactive) | > 100 µM (inactive) | > 100 µM (inactive) | > 100 µM (inactive) | > 100 µM (inactive) | > 100 µM (inactive) | > 100 µM (inactive) | > 100 µM (inactive) | > 100 µM (inactive) | > 100 µM (inactive) | > 100 µM (inactive) | > 100 µM (inactive) | > 100 µM (inactive) | > 100 µM (inactive) | > 100 µM (inactive) | 
COc1ccc(C(OCC2OC(n3cc(C)c(=O)[nH]c3=O)CC2n2cc(Cn3cc(Br)c(=O)[nH]c3=O)nn2)(c2ccccc2)c2ccccc2)cc1 (stereo not given) | > 100 µM (inactive) | > 100 µM (inactive) | > 100 µM (inactive) | > 100 µM (inactive) | 2.07 µM (inactive) | > 100 µM (inactive) | > 100 µM (inactive) | 50.9 µM (inactive) | 21 µM (inactive) | 4.36 µM (inactive) | > 100 µM (inactive) | > 100 µM (inactive) |  | > 100 µM (inactive) | > 100 µM (inactive) | 32.5 µM (inactive) | 5.05 µM (inactive) | > 100 µM (inactive) | > 100 µM (inactive) | > 100 µM (inactive)
COC(=O)c1c2c(cc3c1CC1(C3)Cc3cc4c(c(C(C)=O)c3C1)CCC4)C=CC2 (stereo not given) | > 31.6 µM (inactive) | > 31.6 µM (inactive) | 10.2 µM (inactive) | > 31.6 µM (inactive) | 16.7 µM (inactive) | > 31.6 µM (inactive) | > 31.6 µM (inactive) | > 31.6 µM (inactive) | > 10 µM (inactive) | > 31.6 µM (inactive) | > 31.6 µM (inactive) | > 31.6 µM (inactive) | > 31.6 µM (inactive) | 27.6 µM (inactive) | > 31.6 µM (inactive) | > 31.6 µM (inactive) | 14.2 µM (inactive) | > 31.6 µM (inactive) | 24.3 µM (inactive) | 24.5 µM (inactive)
CCNC(=S)NNC(=O)c1ccccc1Nc1ccccc1C(=O)NNC(=S)NCC | > 100 µM (inactive) | > 100 µM (inactive) | > 100 µM (inactive) | > 100 µM (inactive) | > 100 µM (inactive) | > 100 µM (inactive) | > 100 µM (inactive) | > 100 µM (inactive) | > 100 µM (inactive) | > 100 µM (inactive) | > 100 µM (inactive) | > 100 µM (inactive) | > 100 µM (inactive) | > 100 µM (inactive) | > 100 µM (inactive) | > 100 µM (inactive) | > 100 µM (inactive) |  | > 100 µM (inactive) | > 100 µM (inactive)
C[C@]12CC[C@@H]3c4cc(I)c(O)cc4CC[C@H]3[C@@H]1CC[C@@H]2O | 5.06 µM (inactive) | 6.32 µM (inactive) | 8.75 µM (inactive) | 11.6 µM (inactive) | 5.65 µM (inactive) |  | 2.32 µM (inactive) | 3.27 µM (inactive) | 1.74 µM (inactive) | 5.42 µM (inactive) | 15.5 µM (inactive) | 9.89 µM (inactive) | 3.64 µM (inactive) | 3.72 µM (inactive) | 6.55 µM (inactive) | 10.7 µM (inactive) | 7.74 µM (inactive) |  | 5.74 µM (inactive) | 16.5 µM (inactive)
NCCCCNCCCN1CC1 | 0.359 µM (active) | 4.94 µM (inactive) | 0.902 µM (active) | 1.06 µM (active) | 0.436 µM (active) | 0.92 µM (active) | 0.433 µM (active) | 4.67 µM (inactive) | 1.62 µM (inactive) | 1 µM (active) | 2.67 µM (inactive) | 2.57 µM (inactive) | 5.5 µM (inactive) | 2.47 µM (inactive) | 1.16 µM (inactive) | 5.22 µM (inactive) | 8 µM (inactive) | 0.628 µM (active) | 1.77 µM (inactive) | 0.205 µM (active)
CC1=CC(=O)[C@@H](O)[C@]2(C)[C@H]3[C@@]4(O)OC[C@@]35[C@@H](C[C@@H]12)OC(=O)C(OC(=O)CC1=CCCC1)[C@H]5[C@@H](C)[C@H]4O (stereo not given in full) | 0.0465 µM (active) | 0.28 µM (active) | 0.0344 µM (active) | 0.0409 µM (active) | < 0.0168 µM (active) | 0.024 µM (active) | 0.0272 µM (active) | 0.0256 µM (active) | 0.0269 µM (active) | < 0.0145 µM (active) | 0.0167 µM (active) | 0.0187 µM (active) | 0.023 µM (active) | 0.0178 µM (active) | 0.136 µM (active) | 0.0311 µM (active) | < 0.0124 µM (active) | 0.0169 µM (active) | 0.0668 µM (active) | 0.0527 µM (active)
